Square brackets hold non-standard residues; d marks the D form. Peptide text beside a SMILES is read from it. dNva = CCC[C@@H](N)C(=O)O

A word on the ED50: it is the dose at which the effect has come halfway, by size or by number of responders.

For series [1], the system named is mice. The series can be described thus: PBQ (phenylquinone) induced writhing assay. More on the design: ED50 value: unit not given beside the values. Type of series: in vivo. As to conditions: for ED50 value: as shown in Table 1, PBQ writhing, unit not given; for peripheral analgesia: statement in words, writhing compared with hot plate. The source says: (§1) The term "ED50" as shown in table 1 for the PBQ writhing assays is defined as the dose of drug which induces a 50% reduction in the number of writhes observed compared to the control. The term "ED50" used in the hot-plate assays is defined as the dose of drug required to increase the latency of response 2-fold compared to controls and was determind by parallel-line probit analysis.
(§2) PBQ (phenyl-ρ-benzoquinone) induced writhing in mice is an assessment of both central and peripheral analgesia. For experimental protocol see Sigmund et al., Proc. Soc. Exp. Biol. Med., 95, p. 729 (1957) which is incorporated herein by reference. Central analgesia was determined by the inhibition of a hot plate response in mice. For experimental protocol see G. Woolfe and A. Macdonald, J. Pharmacol. Exp. Ther., 80, p.300 (1944) which is incorporated herein by reference. Assays measuring opioid receptor binding affinities for µ and δ receptors as well as GPI and MVD assays were determined through experimental protocol set out in Schiller et al., Biophys. Res. Commun., 85, p.1322 (1975) incorporated herein by reference.
The test was performed on CD #1 male mice weighing between 18 and 22g. The mice were weighed and marked. They were injected, by intra-peritoneal route, with 0.3ml/20g by weight with a solution of phenylquinone at 0.02%. The contortions which appeared during a 15 minute time period following the injection were counted. The phenylquinone was injected at time intervals of 5, 20 or 60 minutes after administration of the compound (or medium, or standard) by subcutaneous route. It was injected at time intervals of 60 minutes after the administration of the compound (or medium, or standard) by oral route;
The 0.02% phenylquinone^3 solution was prepared in the following fashion. 20mg of phenylquinone was dissolved in 5ml ethanol 90% (sigma, reagent, alcohol). The dissolved phenylquinone was slowly added to 95 ml of distilled water continuously shaken and preheated (not boiled). The phenylquinone solution was, at all times protected from light and a new solution was prepared every day for the test. It is recommended to wait 2 hours before using the phenylquinone solution. ** 2-phenyl-1,4-benzoquinone (Sigma)
The test may be carried out on 5 mice at the same time. Each group usually contained 10 mice. If an antagonist, such as naloxone, was used, it was administered 20 minutes before the compound (or the medium, or the standard) by intra-peritoneal route.

The nature of series [2]: degradation on exposure to brush border kidney membranes. As to conditions: exposed to brushborder kidney membranes. Type of series: in vitro ADME. The source says: Many of the compounds listed in Table 1 show good µ-receptor binding but show weak analgesic effect in the mouse writhing assay. This anomaly may be due to rapid proteolysis, rapid clearence, or both. […] These three compounds are H-Tyr-D-Nva-Phe-Phe-NH2 (BCH2462), H-Tyr-D-Ser-Phe-Phe-NH2 (BCH2463), and H-Tyr-D-Arg-Phe-Phe-NH2 (BCH2687).
The effects of inhibition of proteolytic metabolism of BCH2463 by the inhibitor DL-Thiorphan has been studied and also the metabolic breakdown of BCH2463 mediated by brush border kidney membranes. The data obtained indicate that the kidney may be the principal site of clearance and metabolism for the compound BCH2463. From Figure 2, it appears that the endopeptidase enzyme EC24-11, which is inhibited by DL-thiorphan, is the preliminary mediator of BCH2463 proteolysis by brush border kidney extract.

In series [3] the test system is mice. The series can be described thus: hot plate test (central analgesia). Type of series: in vivo. Conditions: for central analgesic effect: mouse hot plate test, even at doses of 100 mg/kg.
Excerpt: as §1, §2
For this test, CD #1 male mice weighing between 20 and 25g were used. The mice were weighed, marked, and divided into groups of 10.
The mice were usually treated by subcutaneous injection of the compound (or the standard or the medium) in an injection volume equivalent to 0.1 ml/10g p.c. (10ml/kg). If an antagonist such as Nalaxone or N-methyl-Levallorphan was used, it was administered intra-peritoneally 20 minutes before the compound (or the standard, or the medium) was administered. The injection volume was also 0.1 ml/10g p.c. The dose of the antagonist was 10 mg/kg.
The mice were individually evaluated for reaction time on the hot plate. The temperature of the hot plate (Sorel, model DS37) was set at 55°C. […] The mice may be observed at different time intervals after administration of the compound (or medium, or standard). The time intervals may be 30, 60 or 120 minutes (or other).
For each time reading, the average reaction time of the control group was multiplied by 1.5. The reaction time of each treated mouse was compared to the "control average X 1.5.". […] The number of analgesic mice in a group determined the analgesic percentage of the compound for this reading.

Series [4] has as its system mice. The series can be described thus: lethality / safety after i.v. or s.c. administration. Type of series: in vivo. The protocol: Therefore, the desired route of administration for these compounds is subcutaneous. Thus, the structural paradigm exemplified by BCH1774 can be modified while maintaining exclusion from the central nervous system even at doses as high as 100 mg kg^-1 s.c. and the deleterious i.v. toxicity can be minimized. Thus BCH2463 is not lethal to mice at doses at least as high as 20 mg kg^-1 (i.v.).

In the case of `C[C@@H](NC(=O)[C@@H](N)Cc1ccc(O)cc1)C(=O)N[C@@H](Cc1ccccc1)C(=O)N[C@@H](Cc1ccccc1)C(N)=O` [BCH1774, H-Tyr-D-Ala-Phe-Phe-NH2] (H-Y[dA]FF-NH2), the “duration in vivo of analgesic effects” value in the series with mice [1] (20 mg/kg s.c. of BCH1774 compared with 30 mg/kg s.c. of BCH2463 (Figure 3)) was “lasted longer than for BCH2463”. The molecule further came in with an ED50 value in the series with mice [1] of 1.4. Further, the “time within which rapidly degraded” value in series [2] lay in the range of 15 to 30 min. The central analgesic effect result with mice [3] is on record as “lack of analgesic effect”. Also, in the series on mice [4] (1-5 mg kg^-1 i.v. bolus dose), the “lethal effects upon mice” value was “exhibited lethal effects”.
For the molecule `CCC[C@@H](NC(=O)[C@@H](N)Cc1ccc(O)cc1)C(=O)N[C@@H](Cc1ccccc1)C(=O)N[C@@H](Cc1ccccc1)C(N)=O` [BCH2462, H-Tyr-D-Nva-Phe-Phe-NH2] (H-Y[dNva]FF-NH2), in the series with mice [1], the ED50 value was determined as 2.7 and the peripheral analgesia entry is reported as “exhibit peripheral analgesia”. Further, in the series on mice [3] (Figs. 1C, 1D, dose not given), the reaction time entry was “approximately 8 seconds”. Also, the central analgesic effect result with mice [3] was “No central analgesic effect was observed”. For the same molecule, the “lethal effects upon mice” value in the series with mice [4] (1-5 mg kg^-1 i.v. bolus dose) was “exhibited lethal effects”.
Regarding `NC(=O)[C@H](Cc1ccccc1)NC(=O)[C@H](Cc1ccccc1)NC(=O)[C@@H](CO)NC(=O)[C@@H](N)Cc1ccc(O)cc1` [BCH2463, H-Tyr-D-Ser-Phe-Phe-NH2] (H-Y[dS]FF-NH2), in the series on mice [1], the ED50 value is given as 0.5 and the peripheral analgesia entry is reported as “exhibit peripheral analgesia”. Besides, the ED50 in the series on mice [1] (mouse s.c., at 20 minutes post administration (Figure 2)) was found to be 0.5 mg/kg. Moreover, in the series with mice [3] (mice treated with 100 mg/kg (Fig 1B), control approximately 7 seconds), the reaction time result is reported as “about 9 seconds”. Also, in the series on mice [3], the central analgesic effect entry is “No central analgesic effect was observed”. Moreover, the “lethal effects upon mice” value in the series on mice [4] (doses up to 20 mg kg^-1 i.v.) is on record as “did not exhibit any lethal effects”.
Take `N=C(N)NCCC[C@@H](NC(=O)[C@@H](N)Cc1ccc(O)cc1)C(=O)N[C@@H](Cc1ccccc1)C(=O)N[C@@H](Cc1ccccc1)C(N)=O` [BCH2687, H-Tyr-D-Arg-Phe-Phe-NH2] (H-Y[dR]FF-NH2): in the series on mice [1], the ED50 value came to 0.5 and the peripheral analgesia result is reported as “exhibit peripheral analgesia”. Further, the reaction time result in the series on mice [3] (Figs. 1C, 1D, dose not given) was “approximately 8 seconds”. Further, the central analgesic effect entry in the series on mice [3] is given as “No central analgesic effect was observed”.

The values are drawn from patent EP1164141A2, “Opioid peptides and their use for treatment of pain” (AstraZeneca AB, priority 1994, dated 2001).
